Measurements: ChEMBL document CHEMBL1130997, “A 3D-QSAR study on ginkgolides and their analogues with comparative molecular field analysis” (Bioorg Med Chem Lett, 1998)

What was measured:
[1] = target: T1, Platelet-activating factor receptor (Homo sapiens, UniProt P25105); experiment: Binding affinity against platelet activating factor
[2] = target: T1, Platelet-activating factor receptor; experiment: Compound was evaluated for anti-platelet activating factor potency

T1 sequence (P25105 whole entry): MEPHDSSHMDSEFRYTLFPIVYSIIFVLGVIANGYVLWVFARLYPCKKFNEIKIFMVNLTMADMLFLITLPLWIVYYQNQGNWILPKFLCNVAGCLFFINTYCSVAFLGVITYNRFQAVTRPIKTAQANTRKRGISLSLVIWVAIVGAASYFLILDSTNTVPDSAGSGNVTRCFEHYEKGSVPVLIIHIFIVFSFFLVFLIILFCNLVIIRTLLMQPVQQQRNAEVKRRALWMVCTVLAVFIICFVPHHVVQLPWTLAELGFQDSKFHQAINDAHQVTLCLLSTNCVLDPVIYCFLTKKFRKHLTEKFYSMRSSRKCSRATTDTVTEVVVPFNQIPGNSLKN

| Compound | Binding affinity [1] [µM] | IC50 [2] [nM] |
| --- | --- | --- |
| C[C@@H]1C(=O)O[C@H]2[C@H](O)C34[C@H]5C[C@H]6C(C)(C)C[C@@]7(O)C(=O)O[C@@H](O[C@@]3(C(=O)O5)[C@@]12O)C647 (stereo partly drawn) | 0.7 | – |
| CC1C(=O)O[C@H]2[C@H](O)C34[C@H]5C[C@@H](C(C)(C)C)[C@]36[C@@H](OC(=O)[C@@H]6OCOCc3ccccc3)O[C@@]4(C(=O)O5)[C@@]12O (stereo partly drawn) | – | 40.4 |
| COCO[C@@H]1C(=O)O[C@H]2O[C@@]34CCCC35[C@@H](C[C@@H](C(C)(C)C)[C@@]215)OC4=O (stereo partly drawn) | 21 | – |
| C[C@@H]1C(=O)O[C@H]2[C@H](O)[C@@]34[C@H]5C[C@@H](C(C)(C)C)[C@]36[C@@H](OC(=O)[C@@H]6O)O[C@@]4(C(=O)O5)[C@@]12O [GINKOLIDE B] | 0.6 | 128 |
| C[C@@H]1C(=O)O[C@H]2[C@H](OCOCc3ccccc3)C34[C@H]5C[C@@H](C(C)(C)C)[C@]36[C@@H](OC(=O)[C@@H]6O)O[C@@]4(C(=O)O5)[C@@]12O (stereo partly drawn) | – | 58.8 |
| C[C@@H]1C(=O)O[C@H]2CC34[C@H]5C[C@@H](C(C)(C)C)C36[C@@H](OC(=O)[C@@H]6O)O[C@@]4(C(=O)O5)[C@]21O (stereo partly drawn) | 17.8 | – |
| C[C@@H]1C(=O)O[C@H]2[C@H](O)C34[C@@H]5OC(=O)[C@]3(O[C@@H]3OC(=O)[C@H](O)C34[C@H](C(C)(C)C)[C@H]5O)[C@@]12O (stereo partly drawn) | 17 | – |
| CC(C)(C)[C@@H]1C[C@H]2OC(=O)[C@]34C[C@@H](Cl)[C@H](Cl)C23[C@@]12[C@@H](OC(=O)[C@@H]2O)O4 (stereo partly drawn) | 1.3 | – |
| COCO[C@@H]1C(=O)O[C@H]2O[C@@]34C[C@@H](Br)[C@H](OCOC)C35[C@@H](C[C@@H](C(C)(C)C)C215)OC4=O (stereo partly drawn) | 0.6 | – |
| C[C@@H]1C(=O)O[C@H]2CC34[C@@H]5OC(=O)[C@]3(O[C@@H]3OC(=O)[C@H](O)C34[C@H](C(C)(C)C)[C@H]5O)[C@]21O (stereo partly drawn) | 130 | – |
| CC(C)(C)[C@@H]1C[C@H]2OC(=O)[C@]34CC=CC23[C@]12CC(=O)O[C@H]2O4 (stereo partly drawn) | 80 | – |
| C[C@@H]1C(=O)O[C@H]2[C@H](OCc3ccc(Cl)cc3)C34[C@H]5C[C@@H](C(C)(C)C)[C@]36[C@@H](OC(=O)[C@@H]6O)O[C@@]4(C(=O)O5)[C@@]12O (stereo partly drawn) | – | 28.9 |
| COCO[C@@H]1C(=O)OCC12C13[C@H]4C[C@@]2(C(C)(C)C)O[C@]1(C[C@@H](Cl)[C@@H]3Cl)C(=O)O4 (stereo partly drawn) | 0.3 | – |
| COCO[C@@H]1C(=O)OCC12C13[C@H]4C[C@@]2(C(C)(C)C)O[C@]1(C[C@@H](Cl)[C@@H]3OCOC)C(=O)O4 (stereo partly drawn) | 0.3 | – |
| CC1(C)C[C@@]2(O)C(=O)O[C@H]3O[C@@]45CCCC46[C@@H](C[C@@H]1C362)OC5=O (stereo partly drawn) | 9.2 | – |
| C[C@@H]1C(=O)O[C@H]2CC34[C@H]5C[C@@H](C(C)(C)C)C36C(=O)C(=O)O[C@H]6O[C@@]4(C(=O)O5)[C@]21O (stereo partly drawn) | 3.9 | – |
| CC(C)(C)[C@@H]1C[C@H]2OC(=O)[C@@]34CC5OC6C[C@@]1([C@@H](O6)O3)[C@@]24C5Br (stereo partly drawn) | 2.9 | – |
| CO[C@H]1C[C@@]23[C@@H](O1)O[C@@]14CC=CC21[C@@H](C[C@H]3C(C)(C)C)OC4=O (stereo partly drawn) | 120 | – |

More lines, now with the values ahead:

| Binding affinity [1] [µM] | IC50 [2] [nM] | Compound |
| --- | --- | --- |
| 11 | – | CC(=O)O[C@@H]1C(=O)O[C@H]2O[C@@]34CCCC35[C@@H](C[C@@H](C(C)(C)C)C215)OC4=O (stereo partly drawn) |
| 18 | – | CC(C)(C)[C@@]12C[C@H]3OC(=O)[C@@]4(CCCC34C13COC(=O)C3=O)O2 (stereo partly drawn) |
| 76 | – | CC(C)(C)[C@]12C[C@H]3OC(=O)[C@@]4(CCCC34[C@@]13COC(=O)[C@@H]3O)O2 |
| 1.1 | – | CC(C)(C)[C@@]12C[C@H]3OC(=O)[C@@]4(C[C@@H](Cl)CC34C13COC(=O)[C@H]3O)O2 (stereo partly drawn) |
| 13 | – | CC(=O)O[C@H]1C(=O)OC[C@@]12C13CCC[C@]14O[C@@]2(C(C)(C)C)C[C@H]3OC4=O |
| 9.4 | – | COCO[C@H]1C(=O)OC[C@@]12C13CCC[C@]14O[C@@]2(C(C)(C)C)C[C@H]3OC4=O |
| 38 | – | CC(C)(C)[C@]12C[C@H]3OC(=O)[C@@]4(C[C@@H](Cl)[C@H](Cl)C34[C@@]13COC(=O)[C@@H]3O)O2 |
| 1.1 | – | CC(C)(C)[C@@]12C[C@H]3OC(=O)[C@@]4(C[C@@H](Cl)[C@H](Cl)C34C13COC(=O)[C@H]3O)O2 (stereo partly drawn) |
| 13 | – | CC(C)(C)[C@@]12C[C@H]3OC(=O)[C@@]4(CCCC34C13COC(=O)[C@H]3O)O2 (stereo partly drawn) |
